Assay in all cases: Broth microdilution MIC, Example 7 (NCL812 and analogues)
On the technique in general: In broth dilution the organism is exposed to a series of concentrations in liquid medium.

Assay [1] concerns MRSA. The format is cell-based, Staphylococcus aureus. The following applies: for MIC (μg/ml) at 24 hours, MRSA 1 / MIC (μg/ml) at 24 hours, MRSA 2: duplicate lines per compound; for activity against MRSA among analogues: MIC testing, two MRSA strains. The essentials:
(§1)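 Duplicates per isolate, repeated a third time if >one two-fold dilution apart. MIC50, MIC20 and range calculated per bacterial group.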

For assay [2], the system named is VRE. The class given is cell-based, Enterococcus spp. Conditions: for MIC (μg/ml) at 24 hours, VRE 1 / MIC (μg/ml) at 24 hours, VRE 2: duplicate lines per compound; for activity against VRE among analogues: MIC testing, two VRE strains. The essentials: as §1
The test system of assay [3] is Escherichia coli. The class given is cell-based. The following applies: E. coli; 24 hours; duplicate lines per compound.
In assay [4] the test system is Pseudomonas aeruginosa. The class given is cell-based. The following applies: P. aeruginosa; 24 hours; duplicate lines per compound.

For `Cl.N=C(N/N=C/C=C/c1ccccc1)N/N=C/C=C/c1ccccc1` [NCL096], in assay [1], the “MIC (μg/ml) at 24 hours, MRSA 1” value is greater than 128 µg/mL and the “MIC (μg/ml) at 24 hours, MRSA 2” value is greater than 128 µg/mL. Moreover, in assay [2], the “MIC (μg/ml) at 24 hours, VRE 1” value is greater than 128 µg/mL and the “MIC (μg/ml) at 24 hours, VRE 2” value was greater than 128 µg/mL. In addition, in assay [3], the “MIC (μg/ml) at 24 hours, E. coli” value is greater than 128 µg/mL. Further, the “MIC (μg/ml) at 24 hours, P. aeruginosa” value in assay [4] was greater than 128 µg/mL.
As to `Cl.N=C(NN=Cc1cccc(C(=O)O)c1)NN=Cc1cccc(C(=O)O)c1` [NCL098], in assay [1], the “MIC (μg/ml) at 24 hours, MRSA 1” value was greater than 128 µg/mL and the “MIC (μg/ml) at 24 hours, MRSA 2” value is greater than 128 µg/mL. In addition, in assay [2], the “MIC (μg/ml) at 24 hours, VRE 1” value is greater than 128 µg/mL and the “MIC (μg/ml) at 24 hours, VRE 2” value was greater than 128 µg/mL. Besides, the “MIC (μg/ml) at 24 hours, E. coli” value in assay [3] is greater than 128 µg/mL. For the same compound, the “MIC (μg/ml) at 24 hours, P. aeruginosa” value in assay [4] was greater than 128 µg/mL.
For the compound `Cl.N=C(N/N=C/c1ccccc1)N/N=C/c1ccccc1` [NCL100], in assay [1], the “MIC (μg/ml) at 24 hours, MRSA 1” value is greater than 128 µg/mL and the “MIC (μg/ml) at 24 hours, MRSA 2” value is greater than 128 µg/mL. Moreover, in assay [2], the “MIC (μg/ml) at 24 hours, VRE 1” value was greater than 128 µg/mL and the “MIC (μg/ml) at 24 hours, VRE 2” value was greater than 128 µg/mL. For the same compound, the “MIC (μg/ml) at 24 hours, E. coli” value in assay [3] was greater than 128 µg/mL. The “MIC (μg/ml) at 24 hours, P. aeruginosa” value in assay [4] was greater than 128 µg/mL.
Consider `Cl.N=C(NN=Cc1cccc(O)c1O)NN=Cc1cccc(O)c1O` [NCL101], for which, in assay [1], the “activity against MRSA among analogues” value was “greatest activity”; the “MIC (μg/ml) at 24 hours, MRSA 1” value turned out to be 32 µg/mL; the “MIC (μg/ml) at 24 hours, MRSA 2” value worked out at 32 µg/mL. Besides, in assay [2], the “activity against VRE among analogues” value is recorded as “greatest activity”; the “MIC (μg/ml) at 24 hours, VRE 1” value is 64 µg/mL; the “MIC (μg/ml) at 24 hours, VRE 2” value was found to be 128 µg/mL. Further, the “MIC (μg/ml) at 24 hours, E. coli” value in assay [3] is greater than 128 µg/mL. Besides, in assay [4], the “MIC (μg/ml) at 24 hours, P. aeruginosa” value was greater than 128 µg/mL.
In the case of `Cl.N=C(NN=Cc1ccccc1[N+](=O)[O-])NN=Cc1ccccc1[N+](=O)[O-]` [NCL102], in assay [1], the “MIC (μg/ml) at 24 hours, MRSA 1” value was greater than 128 µg/mL and the “MIC (μg/ml) at 24 hours, MRSA 2” value was greater than 128 µg/mL. In addition, in assay [2], the “MIC (μg/ml) at 24 hours, VRE 1” value is greater than 128 µg/mL and the “MIC (μg/ml) at 24 hours, VRE 2” value was greater than 128 µg/mL. In addition, the “MIC (μg/ml) at 24 hours, E. coli” value in assay [3] was greater than 128 µg/mL. The “MIC (μg/ml) at 24 hours, P. aeruginosa” value in assay [4] was greater than 128 µg/mL.
In the case of `Cl.N=C(N/N=C/c1ccc(O)cc1O)N/N=C/c1ccc(O)cc1O` [NCL103], in assay [1], the “MIC (μg/ml) at 24 hours, MRSA 1” value is greater than 128 µg/mL and the “MIC (μg/ml) at 24 hours, MRSA 2” value is greater than 128 µg/mL. Also, in assay [2], the “MIC (μg/ml) at 24 hours, VRE 1” value is greater than 128 µg/mL and the “MIC (μg/ml) at 24 hours, VRE 2” value is greater than 128 µg/mL. In addition, the “MIC (μg/ml) at 24 hours, E. coli” value in assay [3] was greater than 128 µg/mL. Also, the “MIC (μg/ml) at 24 hours, P. aeruginosa” value in assay [4] was greater than 128 µg/mL.
For `Cl.N=C(NN=Cc1cc(O)c(O)cc1O)NN=Cc1cc(O)c(O)cc1O` [NCL104], in assay [1], the “activity against MRSA among analogues” value is “greatest activity”; the “MIC (μg/ml) at 24 hours, MRSA 1” value came to 64 µg/mL; the “MIC (μg/ml) at 24 hours, MRSA 2” value stood at 64 µg/mL. Moreover, in assay [2], the “MIC (μg/ml) at 24 hours, VRE 1” value came out at 128 µg/mL and the “MIC (μg/ml) at 24 hours, VRE 2” value was greater than 128 µg/mL. In addition, in assay [3], the “MIC (μg/ml) at 24 hours, E. coli” value is greater than 128 µg/mL. Further, the “MIC (μg/ml) at 24 hours, P. aeruginosa” value in assay [4] is greater than 128 µg/mL.
On to `Cl.N=C(NN=Cc1ccc(O)c(O)c1O)NN=Cc1ccc(O)c(O)c1O` [NCL105], for which, in assay [1], the “MIC (μg/ml) at 24 hours, MRSA 1” value worked out at 64 µg/mL and the “MIC (μg/ml) at 24 hours, MRSA 2” value was greater than 128 µg/mL. In addition, in assay [2], the “activity against VRE among analogues” value was “greatest activity”; the “MIC (μg/ml) at 24 hours, VRE 1” value worked out at 64 µg/mL; the “MIC (μg/ml) at 24 hours, VRE 2” value was greater than 128 µg/mL. Moreover, the “MIC (μg/ml) at 24 hours, E. coli” value in assay [3] is greater than 128 µg/mL. Further, the “MIC (μg/ml) at 24 hours, P. aeruginosa” value in assay [4] was greater than 128 µg/mL.
Turning to `COc1cc(C=NNC(=N)NN=Cc2cc(O)c(O)c(OC)c2)cc(O)c1O.Cl` [NCL106], in assay [1], the “MIC (μg/ml) at 24 hours, MRSA 1” value is greater than 128 µg/mL and the “MIC (μg/ml) at 24 hours, MRSA 2” value is greater than 128 µg/mL. Also, in assay [2], the “MIC (μg/ml) at 24 hours, VRE 1” value was greater than 128 µg/mL and the “MIC (μg/ml) at 24 hours, VRE 2” value is greater than 128 µg/mL. The “MIC (μg/ml) at 24 hours, E. coli” value in assay [3] is greater than 128 µg/mL. Further, in assay [4], the “MIC (μg/ml) at 24 hours, P. aeruginosa” value was greater than 128 µg/mL.
With `Cl.N=C(NN=Cc1cccc(O)c1)NN=Cc1cccc(O)c1` [NCL108], in assay [1], the “activity against MRSA among analogues” value is listed as “greatest activity”; the “MIC (μg/ml) at 24 hours, MRSA 1” value came to 64 µg/mL; the “MIC (μg/ml) at 24 hours, MRSA 2” value was 64 µg/mL. Also, in assay [2], the “activity against VRE among analogues” value was “greatest activity”; the “MIC (μg/ml) at 24 hours, VRE 1” value amounted to 64 µg/mL; the “MIC (μg/ml) at 24 hours, VRE 2” value came out at 128 µg/mL. For the same compound, the “MIC (μg/ml) at 24 hours, E. coli” value in assay [3] is greater than 128 µg/mL. The “MIC (μg/ml) at 24 hours, P. aeruginosa” value in assay [4] is greater than 128 µg/mL.
For the compound `Cl.N=C(N/N=C/c1cccc([N+](=O)[O-])c1)N/N=C/c1cccc([N+](=O)[O-])c1` [NCL109], in assay [1], the “MIC (μg/ml) at 24 hours, MRSA 1” value is greater than 128 µg/mL and the “MIC (μg/ml) at 24 hours, MRSA 2” value was greater than 128 µg/mL. For the same compound, in assay [2], the “MIC (μg/ml) at 24 hours, VRE 1” value was greater than 128 µg/mL and the “MIC (μg/ml) at 24 hours, VRE 2” value is greater than 128 µg/mL. For the same compound, in assay [3], the “MIC (μg/ml) at 24 hours, E. coli” value is greater than 128 µg/mL. Also, the “MIC (μg/ml) at 24 hours, P. aeruginosa” value in assay [4] was greater than 128 µg/mL.
On to `Cl.N=C(NN=Cc1ccc([N+](=O)[O-])cc1)NN=Cc1ccc([N+](=O)[O-])cc1` [NCL110], for which, in assay [1], the “MIC (μg/ml) at 24 hours, MRSA 1” value is greater than 128 µg/mL and the “MIC (μg/ml) at 24 hours, MRSA 2” value is greater than 128 µg/mL. In assay [2], the “MIC (μg/ml) at 24 hours, VRE 1” value was greater than 128 µg/mL and the “MIC (μg/ml) at 24 hours, VRE 2” value is greater than 128 µg/mL. For the same compound, the “MIC (μg/ml) at 24 hours, E. coli” value in assay [3] was greater than 128 µg/mL. Further, the “MIC (μg/ml) at 24 hours, P. aeruginosa” value in assay [4] was greater than 128 µg/mL.
Consider `Cl.N=C(NN=Cc1ccc(O)c(O)c1)NN=Cc1ccc(O)c(O)c1` [NCL111], for which, in assay [1], the “activity against MRSA among analogues” value is listed as “greatest activity”; the “MIC (μg/ml) at 24 hours, MRSA 1” value is 64 µg/mL; the “MIC (μg/ml) at 24 hours, MRSA 2” value came to 64 µg/mL. In assay [2], the “activity against VRE among analogues” value is “greatest activity”; the “MIC (μg/ml) at 24 hours, VRE 1” value was 64 µg/mL; the “MIC (μg/ml) at 24 hours, VRE 2” value is greater than 128 µg/mL. Besides, the “MIC (μg/ml) at 24 hours, E. coli” value in assay [3] is greater than 128 µg/mL. In addition, the “MIC (μg/ml) at 24 hours, P. aeruginosa” value in assay [4] is greater than 128 µg/mL.
Consider `Cl.N=C(NN=Cc1ccc(-c2ccccc2)cc1)NN=Cc1ccc(-c2ccccc2)cc1` [NCL112], for which, in assay [1], the “MIC (μg/ml) at 24 hours, MRSA 1” value is greater than 128 µg/mL and the “MIC (μg/ml) at 24 hours, MRSA 2” value is 128 µg/mL. In assay [2], the “activity against VRE among analogues” value was “greatest activity”; the “MIC (μg/ml) at 24 hours, VRE 1” value is 64 µg/mL; the “MIC (μg/ml) at 24 hours, VRE 2” value is 32 µg/mL. The “MIC (μg/ml) at 24 hours, E. coli” value in assay [3] is greater than 128 µg/mL. Moreover, the “MIC (μg/ml) at 24 hours, P. aeruginosa” value in assay [4] is greater than 128 µg/mL.
With `Cl.N=C(NN=Cc1cc(Cl)cc(Cl)c1)NN=Cc1cc(Cl)cc(Cl)c1` [NCL114], in assay [1], the “MIC (μg/ml) at 24 hours, MRSA 1” value is greater than 128 µg/mL and the “MIC (μg/ml) at 24 hours, MRSA 2” value was greater than 128 µg/mL. In assay [2], the “MIC (μg/ml) at 24 hours, VRE 1” value was greater than 128 µg/mL and the “MIC (μg/ml) at 24 hours, VRE 2” value is greater than 128 µg/mL. The “MIC (μg/ml) at 24 hours, E. coli” value in assay [3] was greater than 128 µg/mL. Moreover, in assay [4], the “MIC (μg/ml) at 24 hours, P. aeruginosa” value is greater than 128 µg/mL.

Source of the values: patent US10253002B2, “Compounds and methods of treating infections” (Neoculi Pty Ltd., priority 2013, dated 2019).
